Laboratory results reported in patent US20250255304A1, “HIGHLY TRA[…] CONTROLLING COMPOSITION” (ZM Crop Protection Corporation, priority 2022, published 2025).

What was measured:
Type in all cases: in vivo
[1] = tested on: Coptotermes formosanus Shiraki; experiment: Test Example 2: primary transmission treatment effect
Experimental: (§1) A test agent solution containing 0.023 parts of dicloromezotiaz was prepared by adding 99.875 parts of water to 0.125 parts of the aqueous suspension composition shown in Formulation Example 1. As comparative examples, four types of commercially available neonicotinoid termite controlling agents and four types of slow-acting termite controlling agents shown in Table 2 were diluted with water at practical concentrations to prepare test agent solutions. The “agent concentration (%)” indicates the concentration of the active ingredient contained in each of the composition of the present invention and the termite controlling agents and the “test agent solution concentration (%)” indicates the concentration of the active ingredient in each of the prepared test agent solutions.
(§2) After 1.2 g of each of the test agent solutions of the example and the comparative examples diluted to a predetermined concentration and prepared was added to 4.8 g of soil, 6 g of the mixed soil was spread in a glass petri dish having a diameter of 50 mm and ten workers of Coptotermes formosanus Shiraki were released into the petri dish and exposed to the agent solution for 4 hours.

[2] = tested on: Coptotermes formosanus Shiraki; experiment: Test Example 3: extirpation test with dust formulation using simulated termite trails
[3] = tested on: Coptotermes formosanus Shiraki; experiment: Test Example 2: secondary transmission treatment effect
Experimental: as §1, §2

[4] = tested on: Coptotermes formosanus Shiraki; experiment: Test Example 1: effect of agent on gypsum treated with test agent solution; details: dicloromezotiaz 0.023%, imidacloprid 0.1%, fipronil 0.03% test agent solution on gypsum
Experimental: A test agent solution containing 0.023 parts of dicloromezotiaz was prepared by adding 99.875 parts of water to 0.125 parts of the aqueous suspension composition shown in Formulation Example 1.
In a comparative example, an aqueous suspension composition prepared by adding an agent solution, wherein 99 parts of water was added to 1 part of a flowable containing 10.0 parts of imidacloprid and which contained 0.1 parts of imidacloprid and a drug solution, wherein 299 parts of water was added to 1 part of a flowable containing 9.1 parts of fipronil and which contained 0.03 parts of fipronil, uniformly mixing same was used as a test agent solution of a comparative example.
As the imidacloprid formulation and the fipronil formulation, commercially available termite controlling agents were used and diluted solutions at practical agent concentrations thereof were used as test agent solutions.
Gypsum was cured and spread in a glass petri dish having a diameter of 90 mm, 15 ml of each of the test agent solution of the example and the test agent solution of the comparative example was uniformly dropped on the entire surface of the gypsum. Thereafter, ten workers of Coptotermes formosanus Shiraki were released into the petri dish and the petri dish was covered and left to stand in a thermostatic chamber (25° C./relative humidity 60%).
The number of abnormal termites and the number of dead termites among the released termites (Coptotermes formosanus Shiraki) were observed every one hour from immediately after the release of the termites (Coptotermes formosanus Shiraki) until ten hours passed and the total number of the abnormal termite rate and the dead termite rate was calculated as the abnormal or dead termite rate (%) according to [Expression 1] below and the rates of expression of the effects of the respective agents were compared. Each test agent was prepared in one petri dish as one plot and the test was carried out in two replicates.

Measured: Abnormal or dead termite rate (%)

Cc1cccn2c(=O)c(-c3cc(Cl)cc(Cl)c3)c([O-])[n+](Cc3cnc(Cl)s3)c12 [Dicloromezotiaz, dicloromezotiaz]
8.9%: [3]; after 1 day, Table 5, dicloromezotiaz 0.023%, fipronil 0.03%, imidacloprid 0.10%, chlorantraniliprole 0.05% solution in soil
83%: [3]; after 3 days, Table 5, dicloromezotiaz 0.023%, fipronil 0.03%, imidacloprid 0.10%, chlorantraniliprole 0.05% solution in soil
91%: [3]; after 7 days, Table 5, dicloromezotiaz 0.023%, fipronil 0.03%, imidacloprid 0.10%, chlorantraniliprole 0.05% solution in soil | [3]; after 14 days, Table 5, dicloromezotiaz 0.023%, fipronil 0.03%, imidacloprid 0.10%, chlorantraniliprole 0.05% solution in soil
44%: [3]; after 3 days, Table 6, dicloromezotiaz 0.023%, chlorfenapyr 0.11%, clothianidin 0.05%, dinotefuran 0.20%, thiamethoxam 0.10%, broflanilide 0.03% solution in soil
78%: [4]; time elapsed 9 h
30%: [2]; active ingredient concentration 1%, 2 h
19%: [4]; time elapsed 6 h
51%: [4]; time elapsed 8 h
85%: [2]; active ingredient concentration 0.10%, 1 day | [2]; active ingredient concentration 1%, 3 h | [2]; active ingredient concentration 1%, 4 h
88%: [3]; after 7 days, Table 6, dicloromezotiaz 0.023%, chlorfenapyr 0.11%, clothianidin 0.05%, dinotefuran 0.20%, thiamethoxam 0.10%, broflanilide 0.03% solution in soil | [3]; after 14 days, Table 6, dicloromezotiaz 0.023%, chlorfenapyr 0.11%, clothianidin 0.05%, dinotefuran 0.20%, thiamethoxam 0.10%, broflanilide 0.03% solution in soil
40%: [2]; active ingredient concentration 0.10%, 6 h | [2]; active ingredient concentration 0.10%, 7 h
92%: [3]; after 21 days, Table 5, dicloromezotiaz 0.023%, fipronil 0.03%, imidacloprid 0.10%, chlorantraniliprole 0.05% solution in soil
25%: [2]; active ingredient concentration 0.10%, 4 h | [2]; active ingredient concentration 0.25%, 3 h | [2]; active ingredient concentration 0.25%, 4 h
2.2%: [3]; after 1 day, Table 6, dicloromezotiaz 0.023%, chlorfenapyr 0.11%, clothianidin 0.05%, dinotefuran 0.20%, thiamethoxam 0.10%, broflanilide 0.03% solution in soil
0%: [2]; active ingredient concentration 0.10%, 1 h | [2]; active ingredient concentration 0.10%, 2 h | [2]; active ingredient concentration 0.10%, 3 h | [2]; active ingredient concentration 0.25%, 1 h | [2]; active ingredient concentration 0.25%, 2 h | [2]; active ingredient concentration 0.5%, 1 h | [2]; active ingredient concentration 0.5%, 2 h | [2]; active ingredient concentration 1%, 1 h | [4]; time elapsed 1 h | [4]; time elapsed 2 h | [4]; time elapsed 3 h | [4]; time elapsed 4 h | [4]; time elapsed 5 h
84%: [3]; after 21 days, Table 6, dicloromezotiaz 0.023%, chlorfenapyr 0.11%, clothianidin 0.05%, dinotefuran 0.20%, thiamethoxam 0.10%, broflanilide 0.03% solution in soil
100%: [1]; after 1 day, Table 3, dicloromezotiaz 0.023%, fipronil 0.03%, imidacloprid 0.10%, chlorantraniliprole 0.05% solution in soil | [1]; after 1 day, Table 4, dicloromezotiaz 0.023%, chlorfenapyr 0.11%, clothianidin 0.05%, dinotefuran 0.20%, thiamethoxam 0.10%, broflanilide 0.03% solution in soil | [1]; after 3 days, Table 3, dicloromezotiaz 0.023%, fipronil 0.03%, imidacloprid 0.10%, chlorantraniliprole 0.05% solution in soil | [1]; after 3 days, Table 4, dicloromezotiaz 0.023%, chlorfenapyr 0.11%, clothianidin 0.05%, dinotefuran 0.20%, thiamethoxam 0.10%, broflanilide 0.03% solution in soil | [1]; after 7 days, Table 3, dicloromezotiaz 0.023%, fipronil 0.03%, imidacloprid 0.10%, chlorantraniliprole 0.05% solution in soil | [1]; after 7 days, Table 4, dicloromezotiaz 0.023%, chlorfenapyr 0.11%, clothianidin 0.05%, dinotefuran 0.20%, thiamethoxam 0.10%, broflanilide 0.03% solution in soil | [1]; after 14 days, Table 3, dicloromezotiaz 0.023%, fipronil 0.03%, imidacloprid 0.10%, chlorantraniliprole 0.05% solution in soil | [1]; after 14 days, Table 4, dicloromezotiaz 0.023%, chlorfenapyr 0.11%, clothianidin 0.05%, dinotefuran 0.20%, thiamethoxam 0.10%, broflanilide 0.03% solution in soil | [1]; after 21 days, Table 3, dicloromezotiaz 0.023%, fipronil 0.03%, imidacloprid 0.10%, chlorantraniliprole 0.05% solution in soil | [1]; after 21 days, Table 4, dicloromezotiaz 0.023%, chlorfenapyr 0.11%, clothianidin 0.05%, dinotefuran 0.20%, thiamethoxam 0.10%, broflanilide 0.03% solution in soil | [2]; active ingredient concentration 0.10%, 2 days | [2]; active ingredient concentration 0.10%, 3 days | [2]; active ingredient concentration 0.10%, 7 days | [2]; active ingredient concentration 0.25%, 6 h | [2]; active ingredient concentration 0.25%, 7 h | [2]; active ingredient concentration 0.25%, 1 day | [2]; active ingredient concentration 0.25%, 2 days | [2]; active ingredient concentration 0.25%, 3 days | [2]; active ingredient concentration 0.25%, 7 days | [2]; active ingredient concentration 0.5%, 5 h | [2]; active ingredient concentration 0.5%, 6 h | [2]; active ingredient concentration 0.5%, 7 h | [2]; active ingredient concentration 0.5%, 1 day | [2]; active ingredient concentration 0.5%, 2 days | [2]; active ingredient concentration 0.5%, 3 days | [2]; active ingredient concentration 0.5%, 7 days | [2]; active ingredient concentration 1%, 5 h | [2]; active ingredient concentration 1%, 6 h | [2]; active ingredient concentration 1%, 7 h | [2]; active ingredient concentration 1%, 1 day | [2]; active ingredient concentration 1%, 2 days | [2]; active ingredient concentration 1%, 3 days | [2]; active ingredient concentration 1%, 7 days | [4]; time elapsed 10 h
60%: [2]; active ingredient concentration 0.25%, 5 h
37%: [4]; time elapsed 7 h
35%: [2]; active ingredient concentration 0.10%, 5 h
45%: [2]; active ingredient concentration 0.5%, 3 h | [2]; active ingredient concentration 0.5%, 4 h
